Measurements reported in patent publication US20090042882A1, “SUBSTITUTED ACETAMIDES AS MODULATORS OF THE EP2 RECEPTOR” (priority 2007, published 2009).

Tests used:
[1] = tested on: cumulus-oocyte complexes (cumulus expansion); test: cumulus expansion assay in vitro; format: cell-based, mice
Method: Folliculogenesis is induced in immature female mice (strain: CD1 (ICR) from Charles River) at an age of 14-18 days by a single dose (intraperitoneal) of 10 I.U. of PMSG (Pregnant Mare Serum Gonadotropine; Sigma G-4877, Lot 68H0909). 47-50 hours after the injection, the ovaries are removed and the cumulus-oocyte complexes are removed. The cumulus complex is not yet expanded at this stage.
The cumulus-oocyte complexes are then incubated with prostaglandin E2 (PGE2) (0.3 μM), vehicle control (ethanol) or test substances for 20-24 hours. Medium: alpha-MEM medium with 0.1 mM IBMX, pyruvates (0.23 mM) glutamines (2 mM), pen/strep 100 IU/ml pen. and 100 μg/ml strep.) and HSA (8 mg/ml)). Cumulus expansion is then established through the division into four stages (according to Vanderhyden et al. Dev Biol. 1990 August; 140 (2):307-317).

[2] = biological target: T1, human prostaglandin E2 (subtype EP2) receptor (Homo sapiens, UniProt P43116); test: cAMP antagonism assay; format: cell-based; details: in the presence of PGE2
T1 construct: host or cells: cells in a culture plate
Method: (§1) The binding of PGE2 to the EP2 subtype of the human PGE2 receptor induces activation of membrane-associated adenylate cyclases and leads to the formation of cAMP. In the presence of the phosphodiesterase inhibitor IBMX, cAMP which has accumulated due to this stimulation and been released by cell lysis is employed in a competitive detection method. In this assay, the cAMP in the lysate competes with cAMP-XL665 for binding of an Eu cryptate-labelled anti-cAMP antibody.
(§2) The two signals are measured in a suitable measuring instrument with a time lag, i.e. after the background fluorescence has declined.
(§3) The substance solutions (0.75 μl) introduced into an assay plate and 30% DMSO are dissolved in 16 μl of a KRSB+IBMX stimulation solution (1× Krebs-Ringer Bicarbonate Buffer; Sigma-Aldrich # K-4002; including 750 μM 3-isobutyl-1-methylxanthine Sigma-Aldrich # I-7018), and then 15 μl thereof are transferred into a media-free cell culture plate which has been washed with KRSB shortly beforehand.
After preincubation at room temperature (RT) for 30 minutes, 5 μl of a 4×PGE2 solution (11 nM) are added, and incubation is carried out in the presence of the agonist at RT for a further 60 min (volume: ˜20 μl) before the reaction is then stopped by adding 5 μl of lysis buffer and incubated at RT for a further 20 min (volume: ˜25 μl). The cell lysate is then transferred into a measuring plate and measured in accordance with the manufacturer's information (cyclic AMP kit Cisbio International #62AMPPEC).

[3] = biological target: T1, human prostaglandin E2 (subtype EP2) receptor; test: cellular cAMP agonism assay; format: cell-based
Method: as §1, §2, §3
After incubation at room temperature (RT; volume: ˜15 μl) for 60 minutes, the reaction is then stopped by adding 5 μl of lysis buffer and incubated at RT for a further 20 min (volume: ˜20 μl). The cell lysate is then transferred into a measuring plate and measured in accordance with the manufacturer's information (cyclic AMP kit Cisbio International #62AMPPEC).

T1 sequence (P43116 whole entry): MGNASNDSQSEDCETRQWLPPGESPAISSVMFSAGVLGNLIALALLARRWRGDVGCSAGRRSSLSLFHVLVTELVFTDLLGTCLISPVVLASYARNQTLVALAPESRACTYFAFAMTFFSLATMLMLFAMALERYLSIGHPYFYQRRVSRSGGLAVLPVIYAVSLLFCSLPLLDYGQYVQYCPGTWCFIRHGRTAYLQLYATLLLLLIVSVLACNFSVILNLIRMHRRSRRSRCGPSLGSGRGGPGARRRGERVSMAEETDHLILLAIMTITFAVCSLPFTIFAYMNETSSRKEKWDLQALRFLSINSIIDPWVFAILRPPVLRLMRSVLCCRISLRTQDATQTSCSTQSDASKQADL

How did the “inhibition of cumulus expansion” value ([1]; concentration 100-200 μM, competing with the natural EP2 receptor agonist PGE2) turn out when CC(C)Oc1ccc2c(=O)c3cc(C(=O)O)ccc3oc2c1 [AH 6809, reference compound] was run?
The value was roughly 30%.

Which IC50 [2] does the source give for COc1ccc(OCC(=O)NCCc2c(C)[nH]c3c(F)ccc(C)c23)cc1 [Example 1, N-[2-(7-Fluoro-2,4-dimethyl-1H-indol-3-yl)ethyl]2-(4-methoxyphenoxy)acetamide] here?
Its IC50 is 1100 nM.

With Cc1[nH]c2c(F)ccc(C)c2c1CCNC(=O)COc1ccccc1 [Example 5, N-[2-(7-Fluoro-2,4-dimethyl-1H-indol-3-yl)-ethyl]-2-phenoxy-acetamide] as the compound, how does the IC50 [2] read?
The IC50 was 2700 nM.

With Cc1[nH]c2c(F)ccc(C)c2c1CCNC(=O)COc1ccc(Cl)cc1 [Example 6, 2-(4-Chlorophenoxy)-N-[2-(7-fluoro-2,4-dimethyl-1H-indol-3-yl)ethyl]-acetamide] as the compound, how does the “effect in the cellular agonism test” value [3] read?
The value was “no inhibition”.

What about the IC50 [2] of the same compound?
The IC50 was 1300 nM.

What about the “inhibition of cumulus expansion” value ([1]; concentration 10 μM (10 to 20 times lower than AH 6809), competing with PGE2) of the same compound?
The value was 30%.
